Reference: patent US20040071768A1, “Compositions and methods for treating cancer” (Inex Pharmaceuticals Corporation, priority 1999, published 2004)

How the values were obtained:
[1] = test system: DLD-1 colon xenografts; details: positive control
Description: Female NCr nude mice were injected intravenously (q7dx3) via the lateral tail vein on days indicated by an asterisk (*). […] Irinotecan (⋄) was prepared in saline and injected iv (q4dx3) at a dose of 90 mg/kg/dose. Drug-to-lipid ratio was 0.3/1 (w/w). Data points represent median tumor volume (n=6).
(§1) The anti-tumor activity of multiple (q7d3) dose schedules of liposomal vinorelbine was evaluated in several human xenograft tumor models. The goal of this series of studies was to identify the benefits of encapsulation by evaluating a series of doses and determining the therapeutic index in several xenograft models. Models were selected based on the following criteria: (1) activity in the single dose studies, (2) a comprehensive literature review of vinca alkaloid efficacy, (3) a desire to include at least 2-3 models that represent the clinical use of vinorelbine, and (4) a desire to include models with a range of sensitivity to vinorelbine so that improvements resulting from the use of the liposome formulation might be identified. Based on these criteria, MX-1 and MDA-MB-435 breast models, the NCl-H460 NSCLC model and the HT-29 and DLD-1 colon models were chosen.
(§2) Therapeutic index (TI) is a parameter that quantifies the “safety factor” of a particular therapy. TI is a ratio of a toxicity parameter and a biological activity parameter. Therefore, a higher ratio represents a greater potential margin of safety. For these studies, TI is defined as follows: […]
(§3) The minimal effective dose (MED) was set according to NCl activity criteria as the dose resulting in an optimal % T/C of 40. This information was derived from Table 7.

[2] = test system: NCl H460 non small cell lung xenografts; test: Multiple dose (q7dx3) anti-tumor activity, NCl H460 non small cell lung xenograft; details: positive control
Description: Female NCr nude mice were injected intravenously (q7dx3, beginning day 7) via the lateral tail vein. […] Mitomycin C (⋄) was prepared in saline and injected iv (q4dx3) at a dose of 3 mg/kg/dose. Drug-to-lipid ratio was 0.3/1 (w/w). Data points represent median tumor volume (n=6).
as §1, §2, §3

[3] = test system: MDA-MB-435 breast xenografts; details: positive control
Description: Female NCr nude mice were injected intravenously (q7dx3, beginning day 15) via the lateral tail vein. […] Paclitaxel (⋄) was prepared in […]/12.5% ethanol/75% saline and injected iv (q1dx5) at a dose of 15 mg/kg/dose. Drug-to-lipid ratio was 0.3/1 (w/w). Data points represent median tumor volume (n=6).
as §1, §2, §3

[4] = adults, cited from earlier work

CCc1c2c(nc3ccc(OC(=O)N4CCC(N5CCCCC5)CC4)cc13)-c1cc3c(c(=O)n1C2)COC(=O)[C@]3(O)CC [Irinotecan]
% T/C (optimal % T/C following final treatment) ([1]; 90 mg/kg/dose iv q4dx3): 11%
DRD (drug related deaths, n = 6) ([1]; 90 mg/kg/dose iv q4dx3): 0
NCI Score ([1]; 90 mg/kg/dose iv q4dx3): 1
T-C (tumor growth delay to 1000 mm^3) ([1]; 90 mg/kg/dose iv q4dx3): 17.2
TF (tumor free animals at the end of study) ([1]; 90 mg/kg/dose iv q4dx3, n=6): 0

CO[C@@]12[C@H](COC(N)=O)C3=C(C(=O)C(C)=C(N)C3=O)N1C[C@@H]1N[C@@H]12 [Mitomycin C]
% T/C (optimal % T/C following final treatment) ([2]; 3 mg/kg/dose iv q4dx3): 5%
DRD (drug related deaths, n = 6) ([2]; 3 mg/kg/dose iv q4dx3): 0
NCI Score ([2]; 3 mg/kg/dose iv q4dx3): 1
T-C (tumor growth delay to 1000 mm^3) ([2]; 3 mg/kg/dose iv q4dx3): 22.2
TF (tumor free animals at the end of study) ([2]; 3 mg/kg/dose iv q4dx3, n=6): 0

CC(=O)O[C@H]1C(=O)[C@@]2(C)[C@H]([C@H](OC(=O)c3ccccc3)[C@]3(O)C[C@H](OC(=O)[C@H](O)[C@@H](NC(=O)c4ccccc4)c4ccccc4)C(C)=C1C3(C)C)[C@]1(OC(C)=O)CO[C@@H]1C[C@@H]2O [Paclitaxel]
% T/C (optimal % T/C following final treatment) ([3]; 15 mg/kg/dose iv q1dx5): −55%
NCI Score ([3]; 15 mg/kg/dose iv q1dx5): 3
T-C (tumor growth delay to 1000 mm^3) ([3]; 15 mg/kg/dose iv q1dx5): 36.9
TF (tumor free animals at the end of study) ([3]; 15 mg/kg/dose iv q1dx5, n=6): 0

CC[C@]1(O)C[C@H]2CN(CCc3c([nH]c4ccccc34)[C@@](C(=O)OC)(c3cc4c(cc3OC)N(C=O)[C@H]3[C@@](O)(C(=O)OC)[C@H](OC(C)=O)[C@]5(CC)C=CCN6CC[C@]43[C@@H]65)C2)C1 [free vincristine, 22-oxovincaleukoblastine]
total dose at which peripheral neuropathic effects usually begin ([4]; 2-3 doses): 5 to 6 mg
cumulative dose after which peripheral neuropathic effects are generally significant ([4]; 8-10 doses): 15 to 20 mg
